Reference: ChEMBL document CHEMBL1201862, “PubChem BioAssay data set” (2004)
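Protocol summary: plate cells (96-well), add compound at 5 concentrations, incubate 48 h, interpolate endpoints linearly. At the GI50, growth is halved.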 Active and inactive are the calls of the source. Cut-off read from the data, not from the text of the source: active = GI50 up to about 1.1 µM and inactive = higher.

Legend:
Experiment in all cases: growth of human tumour cells (NCI), 48 h
K562 = test system: K562
CAKI-1 = test system: CAKI-1
SF-295 = test system: SF-295
HCC 2998 = test system: HCC 2998
M19-MEL = test system: M19-MEL
IGROV-1 = test system: IGROV-1
KM12 = test system: KM12
SR = test system: SR
KM-20L2 = test system: KM-20L2
OVCAR-3 = test system: OVCAR-3
HL-60 = test system: HL-60
NCI-H460 = test system: NCI-H460
UACC-257 = test system: UACC-257
OVCAR-4 = test system: OVCAR-4
SK-MEL-2 = test system: SK-MEL-2
SF-268 = test system: SF-268
RXF 393 = test system: RXF 393
HOP-92 = test system: HOP-92
DLD-1 = test system: DLD-1
MOLT-4 = test system: MOLT-4
LXFL 529 = test system: LXFL 529
HT-29 = test system: HT-29
Malme-3M = test system: Malme-3M
OVCAR-8 = test system: OVCAR-8
NCI-H23 = test system: NCI-H23
A498 = test system: A498
EKVX = test system: EKVX
XF498 = test system: XF498
SK-OV-3 = test system: SK-OV-3
A549 = test system: A549
UO-31 = test system: UO-31
SNB-75 = test system: SNB-75
OVCAR-5 = test system: OVCAR-5
SNB-19 = test system: SNB-19
DMS-273 = test system: DMS-273
UACC-62 = test system: UACC-62
NCI-H522 = test system: NCI-H522
HOP-62 = test system: HOP-62
CCRF-CEM = test system: CCRF-CEM
HOP-18 = test system: HOP-18
M14 = test system: M14
TK-10 = test system: TK-10
SN12C = test system: SN12C
LOX IMVI = test system: LOX IMVI
HCT-15 = test system: HCT-15
COLO 205 = test system: COLO 205
U-251 = test system: U-251
ACHN = test system: ACHN
RPMI-8226 = test system: RPMI-8226
HCT-116 = test system: HCT-116
SK-MEL-28 = test system: SK-MEL-28
SW-620 = test system: SW-620
786-0 = test system: 786-0
SK-MEL-5 = test system: SK-MEL-5
SNB-78 = test system: SNB-78
NCI-H226 = test system: NCI-H226
SF-539 = test system: SF-539
DMS-114 = test system: DMS-114

## CCOC(=O)N1C=NC23C(c4ccccc4)C(c4ccccc4)C12C(=O)N(C)C(=O)N3C (stereo unspecified)
K562
  GI50: > 100 µM (inactive)
CAKI-1
  GI50: > 100 µM (inactive)
SF-295
  GI50: > 100 µM (inactive)
HCC 2998
  GI50: > 100 µM (inactive)
M19-MEL
  GI50: > 100 µM (inactive)
IGROV-1
  GI50: > 100 µM (inactive)
KM12
  GI50: > 100 µM (inactive)
SR
  GI50: > 100 µM (inactive)
KM-20L2
  GI50: > 100 µM (inactive)
OVCAR-3
  GI50: > 100 µM (inactive)
HL-60
  GI50: 56.1 µM (inactive)
NCI-H460
  GI50: > 100 µM (inactive)
UACC-257
  GI50: > 100 µM (inactive)
OVCAR-4
  GI50: > 100 µM (inactive)
SK-MEL-2
  GI50: > 100 µM (inactive)
SF-268
  GI50: > 100 µM (inactive)
RXF 393
  GI50: 16.3 µM (inactive)
HOP-92
  GI50: > 100 µM (inactive)
DLD-1
  GI50: > 100 µM (inactive)
MOLT-4
  GI50: > 100 µM (inactive)
LXFL 529
  GI50: > 100 µM (inactive)
HT-29
  GI50: > 100 µM (inactive)
Malme-3M
  GI50: > 100 µM (inactive)
OVCAR-8
  GI50: > 100 µM (inactive)
NCI-H23
  GI50: > 100 µM (inactive)
A498
  GI50: > 100 µM (inactive)
EKVX
  GI50: > 100 µM (inactive)
XF498
  GI50: > 100 µM (inactive)
SK-OV-3
  GI50: > 100 µM (inactive)
A549
  GI50: > 100 µM (inactive)
UO-31
  GI50: 77.1 µM (inactive)
SNB-75
  GI50: > 100 µM (inactive)
OVCAR-5
  GI50: > 100 µM (inactive)
SNB-19
  GI50: > 100 µM (inactive)
DMS-273
  GI50: > 100 µM (inactive)
UACC-62
  GI50: > 100 µM (inactive)
NCI-H522
  GI50: > 100 µM (inactive)
HOP-62
  GI50: > 100 µM (inactive)
CCRF-CEM
  GI50: > 100 µM (inactive)
HOP-18
  GI50: 1.52 µM (inactive)
M14
  GI50: > 100 µM (inactive)
TK-10
  GI50: > 100 µM (inactive)
SN12C
  GI50: > 100 µM (inactive)
LOX IMVI
  GI50: > 100 µM (inactive)
HCT-15
  GI50: > 100 µM
COLO 205
  GI50: > 100 µM (inactive)
U-251
  GI50: > 100 µM (inactive)
ACHN
  GI50: > 100 µM (inactive)
RPMI-8226
  GI50: 44.2 µM (inactive)
HCT-116
  GI50: > 100 µM (inactive)
SK-MEL-28
  GI50: > 100 µM (inactive)
SW-620
  GI50: > 100 µM (inactive)
786-0
  GI50: > 100 µM (inactive)
SK-MEL-5
  GI50: > 100 µM (inactive)

## O=C1C(c2ccc([N+](=O)[O-])cc2)=[N+]([O-])c2ccccc21
K562
  GI50: 26.5 µM (inactive)
CAKI-1
  GI50: 42.2 µM (inactive)
SF-295
  GI50: 42.1 µM (inactive)
M19-MEL
  GI50: 17.2 µM (inactive)
IGROV-1
  GI50: 43.3 µM (inactive)
KM12
  GI50: 34.8 µM (inactive)
SR
  GI50: 23.7 µM (inactive)
OVCAR-3
  GI50: 19.9 µM (inactive)
HL-60
  GI50: 25.8 µM (inactive)
NCI-H460
  GI50: 37 µM (inactive)
OVCAR-4
  GI50: 9.51 µM (inactive)
SK-MEL-2
  GI50: > 100 µM (inactive)
SF-268
  GI50: 40.8 µM (inactive)
RXF 393
  GI50: 23.3 µM (inactive)
HOP-92
  GI50: 31 µM (inactive)
DLD-1
  GI50: 33.9 µM (inactive)
MOLT-4
  GI50: 31.5 µM (inactive)
LXFL 529
  GI50: 19.8 µM (inactive)
HT-29
  GI50: 37.6 µM (inactive)
Malme-3M
  GI50: 36.6 µM (inactive)
OVCAR-8
  GI50: 4.31 µM (inactive)
NCI-H23
  GI50: 23.3 µM (inactive)
EKVX
  GI50: 32.8 µM (inactive)
SNB-78
  GI50: 22.5 µM (inactive)
SK-OV-3
  GI50: 77.6 µM (inactive)
A549
  GI50: 28 µM (inactive)
UO-31
  GI50: 29.4 µM (inactive)
SNB-75
  GI50: 30.6 µM (inactive)
OVCAR-5
  GI50: 22.8 µM (inactive)
SNB-19
  GI50: < 0.01 µM (active)
NCI-H226
  GI50: 34.9 µM (inactive)
DMS-273
  GI50: > 10 µM (inactive)
UACC-62
  GI50: 19.2 µM (inactive)
NCI-H522
  GI50: 8.57 µM (inactive)
SF-539
  GI50: 37.9 µM (inactive)
HOP-62
  GI50: 32.4 µM (inactive)
CCRF-CEM
  GI50: 22.9 µM (inactive)
HOP-18
  GI50: < 0.01 µM (active)
M14
  GI50: 28.7 µM (inactive)
TK-10
  GI50: 37.1 µM (inactive)
SN12C
  GI50: 24.5 µM (inactive)
LOX IMVI
  GI50: 21.1 µM (inactive)
HCT-15
  GI50: 17.3 µM
COLO 205
  GI50: 11.1 µM (inactive)
U-251
  GI50: 16.5 µM (inactive)
DMS-114
  GI50: 10.7 µM (inactive)
ACHN
  GI50: 16.8 µM (inactive)
RPMI-8226
  GI50: 19 µM (inactive)
HCT-116
  GI50: 25.8 µM (inactive)
SK-MEL-28
  GI50: 29.3 µM (inactive)
SW-620
  GI50: 32.4 µM (inactive)
786-0
  GI50: > 100 µM (inactive)
SK-MEL-5
  GI50: 16.3 µM (inactive)

## COc1cc2c(c3c1c(=O)c1ccccc1n3C)C=CC(C)(C)O2 [ACRONINE]
K562
  GI50: 52.1 µM (inactive)
CAKI-1
  GI50: > 100 µM (inactive)
SF-295
  GI50: 32.3 µM (inactive)
M19-MEL
  GI50: 72.3 µM (inactive)
IGROV-1
  GI50: 58.5 µM (inactive)
KM12
  GI50: > 100 µM (inactive)
SR
  GI50: 0.885 µM (active)
KM-20L2
  GI50: 49.9 µM (inactive)
OVCAR-3
  GI50: > 100 µM (inactive)
HL-60
  GI50: 60.7 µM (inactive)
NCI-H460
  GI50: 43.6 µM (inactive)
UACC-257
  GI50: > 100 µM (inactive)
OVCAR-4
  GI50: > 100 µM (inactive)
SK-MEL-2
  GI50: > 100 µM (inactive)
SF-268
  GI50: > 100 µM (inactive)
RXF 393
  GI50: 25.1 µM (inactive)
HOP-92
  GI50: > 100 µM (inactive)
DLD-1
  GI50: > 100 µM (inactive)
MOLT-4
  GI50: 16.2 µM (inactive)
LXFL 529
  GI50: 94 µM (inactive)
HT-29
  GI50: 56.9 µM (inactive)
Malme-3M
  GI50: > 100 µM (inactive)
OVCAR-8
  GI50: > 100 µM (inactive)
NCI-H23
  GI50: 33.4 µM (inactive)
SNB-78
  GI50: > 100 µM (inactive)
SK-OV-3
  GI50: > 100 µM (inactive)
A549
  GI50: > 100 µM (inactive)
UO-31
  GI50: 49.9 µM (inactive)
SNB-75
  GI50: 82.6 µM (inactive)
OVCAR-5
  GI50: > 100 µM (inactive)
SNB-19
  GI50: > 100 µM (inactive)
NCI-H226
  GI50: > 100 µM (inactive)
DMS-273
  GI50: 23.3 µM (inactive)
UACC-62
  GI50: 96.2 µM (inactive)
NCI-H522
  GI50: 18.5 µM (inactive)
SF-539
  GI50: 37.8 µM (inactive)
HOP-62
  GI50: 46.9 µM (inactive)
CCRF-CEM
  GI50: 79.1 µM (inactive)
HOP-18
  GI50: 56 µM (inactive)
M14
  GI50: > 100 µM (inactive)
TK-10
  GI50: > 100 µM (inactive)
SN12C
  GI50: > 100 µM (inactive)
LOX IMVI
  GI50: > 100 µM (inactive)
HCT-15
  GI50: 45.3 µM
COLO 205
  GI50: > 100 µM (inactive)
U-251
  GI50: > 100 µM (inactive)
DMS-114
  GI50: 45.4 µM (inactive)
ACHN
  GI50: 45.4 µM (inactive)
RPMI-8226
  GI50: 27.9 µM (inactive)
HCT-116
  GI50: > 100 µM (inactive)
SK-MEL-28
  GI50: 48.6 µM (inactive)
SW-620
  GI50: > 100 µM (inactive)
786-0
  GI50: 71 µM (inactive)
SK-MEL-5
  GI50: > 100 µM (inactive)
